Measured values taken from patent US20160038588A1, “Myostatin Antagonism in Human Subjects” (AMGEN INC., priority 2013, published 2016).
Where two headings read alike, the source gives them in different places.

Key:
[1] = system: men with prostate cancer receiving ADT; test: Clinical study: pharmacodynamics (DXA lean and fat mass, CT lower extremity muscle size); assay type: in vivo, human
Method: Eligible subjects were men with a documented history of prostate cancer; no documented distant metastasis at time of enrollment; received ADT (androgen deprivation therapy) for at least 6 months as a primary, adjuvant, or salvage treatment for prostate cancer prior to enrollment; if ADT was being administered intermittently, serum total testosterone level <50 ng/dL at screening; a stable prostate-specific antigen (PSA) as determined by the investigator; no history of primary muscle disease, myopathy, or neuropathy; weight ≦137 kg (300 lbs) and height ≦78 inches; Eastern Cooperative Oncology Group (ECOG) performance status of 0 at screening; no clinically significant elevated creatine phosphokinase (CPK); glomerular filtration rate (GFR) >40 mL/min; aspartate aminotransferase (AST) or alanine aminotransferase (ALT)<2.5× upper limit of normal.
This planned enrollment assumed a between treatment group difference of 1.5% for the secondary endpoint, percent change in lean body mass from baseline to week 5 (standard deviation of 2.1; Smith et al. 2001), and provided 80% power for a 1-sided test at the 10% significance level. An analysis of variance (ANOVA) was used to compare percent change from baseline between treatment groups (3 mg/kg AMG 745 versus placebo).
Analyses of the pharmacodynamic effects were limited to the 3-mg/kg dose cohort and the study was designed to have 80% power to detect a statistically significant between-treatment-group difference in percent change in lean body mass.

[2] = system: anti-AMG 745 (whole molecule) binding antibodies; test: Clinical study: anti-AMG 745 binding antibody immunoassays; assay type: in vivo, human; conditions: subjects who received AMG 745 (1/31)
Method: For the 54 subjects who completed the study serum samples were analysed by surface-plasmon-resonance-based biosensor immunoassays for anti-AMG 745 (whole molecule) binding antibodies. Samples from 2 subjects gave positive results in 1 or more of the immunoassays: […]

[3] = system: men with prostate cancer receiving ADT; test: Clinical study: lower extremity strength (1-RM knee extension) and SPPB; assay type: in vivo, human; set-up: End of Study SPPB-Total Score, Mean / End of Study SPPB-Total Score, Median / Change from Baseline to End of Study SPPB-Total Score, Mean / Change from Baseline to End of Study SPPB-Total Score, Median / Follow-up SPPB-Total Score, Mean / Follow-up SPPB-Total Score, Median: scale not given here
Method: Lower extremity strength was assessed on the basis of maximum weight lifted for one repetition (1-RM) using a knee extension machine. This assessment was performed within 2 weeks prior to and/or up to Day 2, on Day 29, and at a 1 month follow-up visit.
Short Physical Performance Battery (SPPB) was conducted within 2 weeks prior to and/or up to Day 1, on Day 29, and at the 1 month follow-up visit. The SPPB included an assessment of standing balance, timed walk test, and five repetitions of chair stand.

[4] = human, in vivo, sc
Method: (§1) This was a multicenter, randomized, double-blind, placebo-controlled, ascending-multiple-dose study in men with prostate cancer receiving ADT. The trial was designed to evaluate the safety, tolerability, PK, and pharmacodynamics of AMG 745.
(§2) Subcutaneous doses of 0.3 mg/kg, 1.0 mg/kg, and 3.0 mg/kg, were each administered once weekly for 4 weeks, and were evaluated in sequential cohorts. Eight subjects, randomized in a 3:1 allocation ratio to AMG 745 or placebo, were enrolled in the 0.3 mg/kg dose cohort and in the 1.0 mg/kg dose cohort. To evaluate safety, tolerability, PK and the effect of 4 weekly doses on lean body mass, a total of thirty-eight subjects were enrolled in the 3.0 mg/kg dose cohort, randomized in a 1:1 allocation ratio to AMG 745 or placebo.
(§3) The following procedures were performed pre-study and periodically during the study for all cohorts: physical examination, vital signs, electrocardiogram, hematology, chemistry, urinalysis, anti-AMG 745 antibody screen, and blood sample draws for PK. For the 3 mg/kg cohort DXA and lower extremity CT scans were conducted predose and on study day 29 (end of study) and at the one month follow-up visit. All DXA scans were performed on a Hologic or GE Lunar scanner. The same scanner was to be used for all visits for an individual subject. All DXA scans were sent to a central reading facility for review and analysis.
(§4) The pharmacokinetic analyses included all treated subjects for whom the pharmacokinetic parameters could be estimated. Pharmacokinetic parameters were estimated using noncompartmental methods. Summary statistics by dose cohort were generated for each pharmacokinetic parameter. Graphs of serum AMG 745 concentration-time profiles for individual subjects and the means for each dose were prepared.

[5] = Clinical study: pharmacokinetics of AMG 745 after weekly SC doses; conditions: for AUC0-τ / Cmax / CL/F (apparent serum clearance, Dose/AUC Week 4): mean; for AUC0-τ: 7-day dosing interval; for Cmax: serum; for tmax: median
Method: as §1, §2, §3, §4

[6] = 3 mg/kg, baseline to EOS (day 29)
[7] = 3 mg/kg, baseline to follow-up visit
[8] = CT scan, least squares mean (SE)
[9] = DXA scan, ad hoc analysis, least squares mean (SE)
[10] = lean body mass minus the head, DXA scan, least squares mean (SE)
[11] = 0.3 mg/kg SC 4-Week Dosing (N = 6)
[12] = 1.0 mg/kg SC 4-Week Dosing (N = 6)
[13] = 3.0 mg/kg SC 4-Week Dosing (N = 19)
[14] = Week 1 (Dose 1), 0.3 mg/kg SC once-weekly
[15] = Week 1 (Dose 1), 1 mg/kg SC once-weekly
[16] = Week 1 (Dose 1), 3 mg/kg SC once-weekly
[17] = Week 4 (Dose 4), 0.3 mg/kg SC once-weekly
[18] = Week 4 (Dose 4), 1 mg/kg SC once-weekly
[19] = Week 4 (Dose 4), 3 mg/kg SC once-weekly

## AMG 745: anti-myostatin peptibody: human IgG1 Fc fused at C-terminus via GGGGGAQ linker to peptide SEQ ID NO:311; chain SEQ ID NO:635
[1]; 3 mg/kg weekly ×4, baseline to EOS (day 29)
  percent change in lean body mass, least squares mean (SE): 1.5% (0.5%)
[1]; [6]
  lower extremity muscle size percent change: 1.2% (0.7%)
  percent change in fat body mass: −0.7% (0.2%)
[1]; 3 mg/kg, baseline to EOS (day 29), p=0.005
  fat body mass, between-group difference vs placebo: −1.0% (0.3%)
[1]; 3 mg/kg, baseline to EOS (day 29), p=0.065
  lower extremity muscle size, between-group difference vs placebo: 1.8% (1.0%)
[1]; [7]
  lower extremity muscle size percent change: 2.7% (0.7%)
  percent change in fat body mass: −0.8% (0.3%)
[1]; 3 mg/kg, baseline to follow-up visit, p=0.007
  lower extremity muscle size, between-group difference vs placebo: 2.8% (1.0%)
[1]; 3 mg/kg, follow-up visit 1 month after day 29
  percent change in lean body mass, least squares mean (SE): 1.9% (0.5%)
[1]; AMG 745 vs placebo, CT, least squares mean (SE), p value 0.007
  Lower-extremity Muscle Size, Between-group difference in percent change, Baseline to Follow-up Visit [Day 58]: 2.8% (1.0%)
[1]; AMG 745 vs placebo, CT, least squares mean (SE), p value 0.065
  Lower-extremity Muscle Size, Between-group difference in percent change, Baseline to EOS [Day 29]: 1.8% (1.0%)
[1]; AMG 745 vs placebo, DXA, ad hoc, least squares mean (SE), p value 0.005
  Whole Body Fat, Between-group difference in percent change, Baseline to EOS [Day 29]: −1.0% (0.3%)
[1]; AMG 745 vs placebo, DXA, ad hoc, least squares mean (SE), p value 0.068
  Whole Body Fat, Between-group difference in percent change, Baseline to Follow-up Visit [Day 58]: −0.7% (0.4%)
[1]; AMG 745 vs placebo, DXA, least squares mean (SE), p value 0.008
  Lean Body Mass, Between-group difference in percent change, Baseline to EOS [Day 29]: 2.2% (0.8%)
[1]; AMG 745 vs placebo, DXA, least squares mean (SE), p value 0.023
  Lean Body Mass, Between-group difference in percent change, Baseline to Follow-up Visit [Day 58]: 1.7% (0.7%)
[1]; [8]
  Lower-extremity Muscle Size, Percent Change From Baseline to EOS [Day 29]: 1.2% (0.7%)
  Lower-extremity Muscle Size, Percent Change From Baseline to Follow-up Visit [Day 58]: 2.7% (0.7%)
[1]; [9]
  Whole Body Fat, Percent Change From Baseline to EOS [Day 29]: −0.7% (0.2%)
  Whole Body Fat, Percent Change From Baseline to Follow-up Visit [Day 58]: −0.8% (0.3%)
[1]; [10]
  Lean Body Mass, Percent Change From Baseline to EOS [Day 29]: 1.5% (0.5%)
  Lean Body Mass, Percent Change From Baseline to Follow-up Visit [Day 58]: 1.9% (0.5%)
[2]
  incidence of anti-AMG 745 (whole molecule) binding antibodies: 3%
[3]; [11]
  Change from Baseline to End of Study SPPB-Total Score, Mean: 0.67
  Change from Baseline to End of Study SPPB-Total Score, Median: 1.00
  End of Study SPPB-Total Score, Mean: 11.00
  End of Study SPPB-Total Score, Median: 11.00
  Follow-up SPPB-Total Score, Mean: 11.00
  Follow-up SPPB-Total Score, Median: 11.00
[3]; [12]
  Change from Baseline to End of Study SPPB-Total Score, Mean: 1.50
  Change from Baseline to End of Study SPPB-Total Score, Median: 1.50
  End of Study SPPB-Total Score, Mean: 10.33
  End of Study SPPB-Total Score, Median: 10.00
  Follow-up SPPB-Total Score, Mean: 9.50
  Follow-up SPPB-Total Score, Median: 9.00
[3]; [13]
  Change from Baseline to End of Study SPPB-Total Score, Mean: 0.37
  Change from Baseline to End of Study SPPB-Total Score, Median: 0.00
  End of Study SPPB-Total Score, Mean: 10.53
  End of Study SPPB-Total Score, Median: 11.00
  Follow-up SPPB-Total Score, Mean: 10.68
  Follow-up SPPB-Total Score, Median: 11.00
[3]; All AMG 745 Subjects (N = 31)
  Change from Baseline to End of Study SPPB-Total Score, Mean: 0.65
  Change from Baseline to End of Study SPPB-Total Score, Median: 1.00
  End of Study SPPB-Total Score, Mean: 10.58
  End of Study SPPB-Total Score, Median: 11.00
  Follow-up SPPB-Total Score, Mean: 10.52
  Follow-up SPPB-Total Score, Median: 11.00
[3]; four doses, no statistical analyses
  SPPB or 1-RM knee extension, changes from baseline: effects were not apparent
[4]; 0.3 mg/kg
  AR (accumulation ratio, AUC Week 4/AUC Week 1): 2.55
[4]; 3 mg/kg
  AR (accumulation ratio, AUC Week 4/AUC Week 1): 1.78
[5]; 4 weekly SC doses, 0.3 to 3 mg/kg
  dose linearity of pharmacokinetics: dose-linear pharmacokinetics
[5]; [14]
  AUC0-τ: 68.0 µg·h/mL
  Cmax: 502 ng/mL
[5]; Week 1 (Dose 1), 0.3 mg/kg SC once-weekly, men with prostate cancer on ADT
  tmax: 72.4 h
[5]; [15]
  AUC0-τ: 321 µg·h/mL
  Cmax: 2380 ng/mL
[5]; Week 1 (Dose 1), 1 mg/kg SC once-weekly, men with prostate cancer on ADT
  tmax: 24.3 h
[5]; [16]
  AUC0-τ: 800 µg·h/mL
  Cmax: 6380 ng/mL
[5]; Week 1 (Dose 1), 3 mg/kg SC once-weekly, men with prostate cancer on ADT
  tmax: 71.8 h
[5]; [17]
  CL/F (apparent serum clearance, Dose/AUC Week 4): 1.96 mL/h/kg
  AUC0-τ: 175 µg·h/mL
  Cmax: 1340 ng/mL
  tmax: 47.8 h
[5]; [18]
  CL/F (apparent serum clearance, Dose/AUC Week 4): 1.89 mL/h/kg
  AUC0-τ: 556 µg·h/mL
  Cmax: 4170 ng/mL
  tmax: 24.0 h
[5]; [19]
  CL/F (apparent serum clearance, Dose/AUC Week 4): 2.29 mL/h/kg
  AUC0-τ: 1380 µg·h/mL
  Cmax: 10800 ng/mL
  tmax: 24.0 h
